We go through 12 molecules from paper PMC10489938, “Developing an Amide-Spacered Triterpenoid Rhodamine Hybrid of Nano-Molar Cytotoxicity Combined with Excellent Tumor Cell/Non-Tumor Cell Selectivity” (Molecules, 2023).

Usually EC50 stands for the concentration at which the effect is half-maximal.

Series [1] deals with HT29 (colorectal carcinoma). In words: SRB cytotoxicity assay, HT29. The format is cell-based, human. The following applies: Homo sapiens, HT-29, SRB assay, 72 h of treatment, cut-off 30 μM, read-out: Cytotoxicity (EC50) HT29. The method, then:
(§1) Sulforhodamine (SRB) assays were performed to evaluate the cytotoxicity of the compounds. First, the cytotoxicity of the different rhodamines was determined; the results of these assays are compiled in Table 1 and Table 2 and depicted in Figure 1.
(§2) Experimental equipment: as previously described biological assays were performed as previously reported employing cell lines obtained from the Department of Oncology [Martin-Luther-University Halle Wittenberg; they were bought from ATCC [2, 4, 7]]. Rhodamine 101 B, as well as asiatic acid, were obtained from local vendors and used as received.
(§3) For the SRB assay and staining experiments: as previously described.

Series [2] deals with A2780 (ovarian carcinoma). Description: SRB cytotoxicity assay, A2780. The following applies: Homo sapiens, A2780, SRB assay, 72 h of treatment, cut-off 30 μM, read-out: Cytotoxicity (EC50) A2780. Type of series: cell-based, human. The protocol: as §1, §2, §3
On the technique in general: In SRB staining, fixed cells bind dye roughly in proportion to their protein.

For series [3], the system named is MCF7 (breast adenocarcinoma). In words: SRB cytotoxicity assay, MCF7. The format is cell-based, human. Conditions: Homo sapiens, MCF7, SRB assay, 72 h of treatment, cut-off 30 μM, read-out: Cytotoxicity (EC50) MCF7. The protocol:
as §1, §2, §3

Series [4] can be described thus: SRB cytotoxicity assay, NIH 3T3. Conditions: mouse, NIH 3T3 non-malignant fibroblasts, cut-off 30 μM. The format is cell-based, murine. The method, then: as §1, §2, §3
For series [5], the system named is A375 (melanoma). In words: SRB cytotoxicity assay, A375. Type of series: cell-based, human. The following applies: Homo sapiens, A-375, SRB assay, 72 h of treatment, cut-off 30 μM, read-out: Cytotoxicity (EC50) A375. The protocol: as §1, §2, §3
Series [6] relates to HeLa (cervical adenocarcinoma). Description: SRB cytotoxicity assay, HeLa. Type of series: cell-based, human. Conditions: Homo sapiens, HeLa, SRB assay, 72 h of treatment, cut-off 30 μM, read-out: Cytotoxicity (EC50) HeLa. The method, then: as §1, §2, §3

Structures are written as SMILES. Where two headings read alike, the source gives them in different places.

Turning to `COc1cccc2c1C(=O)c1c(O)c3c(c(O)c1C2=O)C[C@@](O)(C(=O)CO)C[C@@H]3O[C@H]1C[C@H](N)[C@H](O)[C@H](C)O1` [DX, doxorubicin, reference compound], the concentration giving a half-maximal response (EC50) is 0.9 ± 0.2 µM in series [1] (Table 1), 0.02 ± 0.01 µM in series [2] (Table 1) and 1.1 ± 0.3 µM in series [3] (Table 1). In series [4] (Table 1, 72 h of treatment), the EC50 at 72 h was 11.9 ± 1.3 µM.
In the case of `CCCN(CCC)c1ccc2c(-c3ccccc3C(=O)O)c3ccc(=[N+](CCC)CCC)cc-3oc2c1` [Rh3, reference compound], the EC50 in series [1] (Table 1) worked out at 9.3 ± 0.4 µM; in series [2] (Table 1), 6.7 ± 0.7 µM; in series [3] (Table 1) it was 6.4 ± 0.4 µM; in series [5] (Table 1) it was 8.2 ± 0.2 µM; in series [6] (Table 1), 8 ± 0.7 µM. This molecule returned an EC50 at 72 h in series [4] (Table 1, 72 h of treatment) of 12 ± 0.7 µM.
Turning to `CCCCN(CCCC)c1ccc2c(-c3ccccc3C(=O)O)c3ccc(=[N+](CCCC)CCCC)cc-3oc2c1` [Rh4, reference compound], the EC50 in series [1] (Table 1) came to 4.9 ± 0.3 µM; in series [2] (Table 1) it was 3.4 ± 0.1 µM; in series [3] (Table 1), 3.08 ± 0.06 µM; in series [5] (Table 1), 4.3 ± 0.1 µM; in series [6] (Table 1), 4.3 ± 0.3 µM. In addition, the response in series [4] (Table 1, 72 h of treatment) was half-maximal at 4.3 ± 0.1 µM (EC50 at 72 h).
For `O=C(O)c1ccccc1C1=c2cc3c4c(c2Oc2c1cc1c5c2CCCN5CCC1)CCC[N+]=4CCC3` [Rh5, rhodamine 101, reference compound], the 50% effective concentration (EC50) in series [1] (Table 1) is 18.5 ± 1.8 µM; in series [2] (Table 1), 8 ± 1.5 µM; in series [3] (Table 1), 8.2 ± 0.8 µM; in series [5] (Table 1), 11.2 ± 1.8 µM; in series [6] (Table 1), 11.8 ± 1.1 µM. For the same molecule, in series [4] (Table 1, 72 h of treatment), the half-maximal effective concentration (EC50) at 72 h amounted to 11.9 ± 1.3 µM.
Take `CC(=O)OC[C@@]1(C)C2CC[C@]3(C)[C@H](CC=C4[C@@H]5[C@@H](C)[C@H](C)CC[C@]5(C(=O)N5CCN(C(=O)c6ccccc6-c6c7ccc(=[N+](C)C)cc-7oc7cc(N(C)C)ccc67)CC5)CC[C@]43C)[C@@]2(C)C[C@@H](OC(C)=O)[C@@H]1OC(C)=O` (stereo partly drawn) [compound 6, (2α,3β,4α)-9-[2-{[4-(2,3,23-Tris(acetyloxy)-urs-12-en-28-oyl)-Piperazinyl]Carbonyl}Phenyl]-3,6-bis(Dimethylamino)-Xanthylium Chloride]: the concentration giving a half-maximal response (EC50) in series [1] (Table 2) was determined as 0.23 ± 0.08 µM; in series [2] (Table 2), 0.043 ± 0.008 µM; in series [3] (Table 2), 0.15 ± 0.03 µM; in series [5] (Table 2) it was 0.15 ± 0.008 µM; in series [6] (Table 2) it was 0.7 ± 0.2 µM. Moreover, the EC50 at 72 h in series [4] (Table 2, 72 h of treatment) turned out to be 0.55 ± 0.06 µM.
As for `CCN(CC)c1ccc2c(-c3ccccc3C(=O)N3CCN(C(=O)[C@]45CC[C@@H](C)[C@H](C)[C@H]4C4=CC[C@@H]6[C@@]7(C)C[C@@H](OC(C)=O)[C@H](OC(C)=O)[C@@](C)(COC(C)=O)C7CC[C@@]6(C)[C@]4(C)CC5)CC3)c3ccc(=[N+](CC)CC)cc-3oc2c1` (stereo partly drawn) [compound 7], the EC50 in series [1] (Table 2) was 0.026 ± 0.009 µM; in series [2] (Table 2), 0.0056 ± 0.0006 µM; in series [3] (Table 2), 0.034 ± 0.009 µM; in series [5] (Table 2), 0.027 ± 0.009 µM; in series [6] (Table 2) it was 0.2 ± 0.1 µM. This molecule also returned a concentration giving a half-maximal response (EC50) at 72 h in series [4] (Table 2, 72 h of treatment) of 0.33 ± 0.08 µM.
`CCCN(CCC)c1ccc2c(-c3ccccc3C(=O)N3CCN(C(=O)[C@]45CC[C@@H](C)[C@H](C)[C@H]4C4=CC[C@@H]6[C@@]7(C)C[C@@H](OC(C)=O)[C@H](OC(C)=O)[C@@](C)(COC(C)=O)C7CC[C@@]6(C)[C@]4(C)CC5)CC3)c3ccc(=[N+](CCC)CCC)cc-3oc2c1` (stereo partly drawn) [compound 8, (2α,3β,4α)-9-[2-{[4-(2,3,23-Tris(Acetyloxy)-urs-12-en-28-oyl)-Piperazinyl]Carbonyl}Phenyl]-3,6-Bis(Dipropylamino)-Xanthylium Chloride]: the EC50 in series [1] (Table 2) turned out to be 0.031 ± 0.007 µM; in series [2] (Table 2) it was 0.0055 ± 0.0005 µM; in series [3] (Table 2), 0.034 ± 0.005 µM; in series [5] (Table 2), 0.032 ± 0.003 µM; in series [6] (Table 2), 0.16 ± 0.05 µM. In series [4] (Table 2, 72 h of treatment), the concentration giving a half-maximal response (EC50) at 72 h amounted to 0.44 ± 0.09 µM.
In the case of `CCCCN(CCCC)c1ccc2c(-c3ccccc3C(=O)N3CCN(C(=O)[C@]45CC[C@@H](C)[C@H](C)[C@H]4C4=CC[C@@H]6[C@@]7(C)C[C@@H](OC(C)=O)[C@H](OC(C)=O)[C@@](C)(COC(C)=O)C7CC[C@@]6(C)[C@]4(C)CC5)CC3)c3ccc(=[N+](CCCC)CCCC)cc-3oc2c1` (stereo partly drawn) [compound 9, (2α,3β,4α)-9-[2-{[4-(2,3,23-Tris(Acetyloxy)-urs-12-en-28-oyl)-Piperazinyl]Carbonyl}Phenyl]-3,6-Bis(Dibutylamino)-Xanthylium Chloride], the concentration for a half-maximal effect (EC50) in series [1] (Table 2) worked out at 0.026 ± 0.008 µM; in series [2] (Table 2), 0.0049 ± 0.0007 µM; in series [3] (Table 2) it was 0.05 ± 0.01 µM; in series [5] (Table 2), 0.016 ± 0.003 µM; in series [6] (Table 2), 0.21 ± 0.05 µM. The molecule also gave an EC50 at 72 h in series [4] (Table 2, 72 h of treatment) of 0.4 ± 0.1 µM.
With `CC(=O)OC[C@@]1(C)C2CC[C@]3(C)[C@H](CC=C4[C@@H]5[C@@H](C)[C@H](C)CC[C@]5(C(=O)N5CCN(C(=O)c6ccccc6C6=c7cc8c9c(c7Oc7c6cc6c%10c7CCCN%10CCC6)CCC[N+]=9CCC8)CC5)CC[C@]43C)[C@@]2(C)C[C@@H](OC(C)=O)[C@@H]1OC(C)=O` (stereo partly drawn) [compound 10], the EC50 is 0.05 ± 0.02 µM in series [1] (Table 2); 0.009 ± 0.002 µM in series [2] (Table 2); 0.05 ± 0.01 µM in series [3] (Table 2); 0.045 ± 0.004 µM in series [5] (Table 2); 0.22 ± 0.05 µM in series [6] (Table 2). Moreover, in series [4] (Table 2, 72 h of treatment), the EC50 at 72 h came out at 0.25 ± 0.05 µM.
`CC(=O)OC[C@@]1(C)C2CC[C@]3(C)[C@H](CC=C4[C@@H]5[C@@H](C)[C@H](C)CC[C@]5(C(=O)N5CCCN(C(=O)c6ccccc6-c6c7ccc(=[N+](C)C)cc-7oc7cc(N(C)C)ccc67)CC5)CC[C@]43C)[C@@]2(C)C[C@@H](OC(C)=O)[C@@H]1OC(C)=O` (stereo partly drawn) [compound 11, (2α,3β,4α)-9-[2-{[4-(2α,3β,23-Tris(Acetyloxy)-urs-12-en-28-oyl)-Homopiperazinyl]Carbonyl}Phenyl]-3,6-Bis(Dimethylamino)-Xanthylium Chloride]: the EC50 amounted to 0.02 ± 0.01 µM in series [1] (Table 2); 0.0032 ± 0.0004 µM in series [2] (Table 2); 0.028 ± 0.005 µM in series [3] (Table 2); 0.039 ± 0.003 µM in series [5] (Table 2); 0.4 ± 0.1 µM in series [6] (Table 2). Moreover, in series [4] (Table 2, 72 h of treatment), the midpoint of the response, the EC50 at 72 h, lay at 0.3 ± 0.1 µM.
Consider `CCN(CC)c1ccc2c(-c3ccccc3C(=O)N3CCCN(C(=O)[C@]45CC[C@@H](C)[C@H](C)[C@H]4C4=CC[C@@H]6[C@@]7(C)C[C@@H](OC(C)=O)[C@H](OC(C)=O)[C@@](C)(COC(C)=O)C7CC[C@@]6(C)[C@]4(C)CC5)CC3)c3ccc(=[N+](CC)CC)cc-3oc2c1` (stereo partly drawn) [compound 12, (2α,3β,4α)-9-[2-{[4-(2α,3β,23-Tris(Acetyloxy)-urs-12-en-28-oyl)-Homopiperazinyl]Carbonyl}Phenyl]-3,6-Bis(Diethylamino)-Xanthylium Chloride], for which the concentration for a half-maximal effect (EC50) in series [1] (Table 2) was 0.0055 ± 0.0023 µM; in series [2] (Table 2), 0.0008 ± 0.0001 µM; in series [3] (Table 2), 0.0071 ± 0.0021 µM; in series [6] (Table 2) it was 0.0177 ± 0.0049 µM. Further, in series [4] (Table 2, 72 h of treatment), the EC50 at 72 h was 0.065 ± 0.0262 µM.
In the case of `CCCN(CCC)c1ccc2c(-c3ccccc3C(=O)N3CCCN(C(=O)[C@]45CC[C@@H](C)[C@H](C)[C@H]4C4=CC[C@@H]6[C@@]7(C)C[C@@H](OC(C)=O)[C@H](OC(C)=O)[C@@](C)(COC(C)=O)C7CC[C@@]6(C)[C@]4(C)CC5)CC3)c3ccc(=[N+](CCC)CCC)cc-3oc2c1` (stereo partly drawn) [compound 13, (2α,3β,4α)-9-[2-{[4-(2α,3β,23-Tris(Acetyloxy)-urs-12-en-28-oyl)-Homopiperazinyl]Carbonyl}Phenyl]-3,6-Bis(Dipropylamino)-Xanthylium Chloride], the EC50 in series [1] (Table 2) turned out to be 0.006 ± 0.001 µM; in series [2] (Table 2), 0.0011 ± 0.0001 µM; in series [3] (Table 2), 0.01 ± 0.001 µM; in series [5] (Table 2) it was 0.0039 ± 0.0006 µM; in series [6] (Table 2), 0.041 ± 0.009 µM. Moreover, the concentration for a half-maximal effect (EC50) at 72 h in series [4] (Table 2, 72 h of treatment) was 0.1 ± 0.05 µM.
